These results are taken from PMC7643060, “Human perinatal stem cell derived extracellular matrix enables rapid maturation of hiPSC-CM structural and functional phenotypes” (Scientific Reports, 2020).

The test system of one series is hiPSC-CM syncytia. As to the kind of experiment: Proarrhythmia screen in 96 well plates using CiPA compounds (voltage sensitive dye, optical mapping). The format is cell-based, human. As to conditions: hiPSC-CM syncytia on Matrix Plus, 10 × ETPC, 30 min exposure. On the procedure: MatrixPlus coated 6 or 96 well plates were stored at 4 °C, transferred to room temperature on the day of cell plating and rehydrated (30 min) in Hank’s Balanced Salt Solution (HBSS). HBSS was aspirated and hiPSC-CMs were plated essentially as before[17],[22]. Briefly, commercially available iCell[2] Cardiomyocytes (Cellular Dynamics International) were thawed at 37 °C for 4 min, diluted in 7 ml of EB20 medium supplemented with blebbistatin (DMEM:F12, 20%FBS, 0.1% glutamine, 0.2%NEAA, 25 µM blebbistatin) and centrifuged (1000 rpm for 5 min) for removal of cryoprotectants. All work with human pluripotent stem cell derived cardiomyocytes was performed with approval from the University of Michigan Human Pluripotent Stem Cell Research Oversight committee (HPSCRO). All methods with human samples were handled following NIH guidelines. Cells from a single vial were diluted in EB20 with blebbistatin ([…]) and split evenly for plating on Matrigel, CELLvo Matrix and MatrixPLUS. Total amount of cells per functional syncytia varied depending on plate format, six well plates received 150,000 cells in the center of 1 cm diameter of matrix; and 96 well plates received 75,000 cells per well. Lower density plating (25,000 cells per well) was also used to more clearly observe cellular shape. hiPSC-CMs were maintained in cardiomyocyte EB20 supplemented with blebbistatin for 2 days before culture in RPMI supplemented with B27 for another 5 days[1].
(§1) Proarrhythmia screening assay was performed using voltage sensitive dye (VSD, FluoVolt) and high speed CCD camera (200fps)[24]. […] Supplemental Tables 1–3 outline each drug tested, the CiPA risk classification, the concentrations used and the clinical recorded Cmax for each drug to provide clinical reference for drug concentrations. Cells were then submitted to optical mapping for detection of voltage changes recorded with the CCD camera via selection of appropriate light wavelength (filter 515 nm, green light, Chroma). Movies were analyzed with custom made analysis software (Scroll) for determination of action potential duration and conduction velocity as described before[22],[24],[25].
Supplemental tables 1-3 outline each drug tested, the CiPA risk classification, the concentrations used and the clinical recorded Cmax for each drug to provide clinical reference for drug concentrations. hiPSC-CM monolayers were then submitted to optical mapping for detection of membrane voltage changes recorded with the CCD camera via selection of appropriate light wavelength (filter 515 nm, green light, Chroma). Movies were analyzed with custom made analysis software (Scroll) for determination of action potential duration and conduction velocity where appropriate.

Another series concerns hiPSC-CM monolayers. Type of series: cell-based, human. As to the method:
HBSS was aspirated and hiPSC-CMs were plated essentially as before[17],[22]. Briefly, commercially available iCell[2] Cardiomyocytes (Cellular Dynamics International) were thawed at 37 °C for 4 min, diluted in 7 ml of EB20 medium supplemented with blebbistatin (DMEM:F12, 20%FBS, 0.1% glutamine, 0.2%NEAA, 25 µM blebbistatin) and centrifuged (1000 rpm for 5 min) for removal of cryoprotectants. All work with human pluripotent stem cell derived cardiomyocytes was performed with approval from the University of Michigan Human Pluripotent Stem Cell Research Oversight committee (HPSCRO). All methods with human samples were handled following NIH guidelines. […]
as §1

In the case of `CC(C)COCC(CN(Cc1ccccc1)c1ccccc1)N1CCCC1` (stereo not drawn) [bepridil], the Wells with arrhythmias result with hiPSC-CM syncytia is “did not yield arrhythmic responses”.
Still for that read-out and setting: under `CC(C)N(CCC(C(N)=O)(c1ccccc1)c1ccccn1)C(C)C` (stereo not drawn) [disopyramide] stands 66%.
The same measure, in the same setting: next, `CN(CCOc1ccc(NS(C)(=O)=O)cc1)CCc1ccc(NS(C)(=O)=O)cc1` [dofetilide]: 83%.
As for `COc1ccccc1OCC(O)CN1CCN(CC(=O)Nc2c(C)cccc2C)CC1` (stereo not drawn) [ranolazine], in the series with hiPSC-CM syncytia, the Wells with arrhythmias result is given as “did not detect any arrhythmias”. For the same compound, in the series on hiPSC-CM monolayers, the “Appearance of arrhythmias of TdP” value is “did not observe appearance of arrhythmias of TdP” and the “Change of beat rate or conduction velocity” value is “did not significantly alter beat rate or conduction velocity”.
